Test [1] concerns the target Adenosine receptor A2a (Homo sapiens, UniProt P29274).
The target of test [2] is Voltage-gated inwardly rectifying potassium channel KCNH2 (Homo sapiens, UniProt Q12809). Type of test: functional.
For test [3], the target named is Mu-type opioid receptor (Homo sapiens, UniProt P35372).
In test [4] the target is Acetylcholinesterase (Homo sapiens, UniProt P22303). Type of test: functional.
Test [5] concerns the target T1, Alpha-2A adrenergic receptor (Homo sapiens, UniProt P08913).
T1 sequence (P08913 whole entry): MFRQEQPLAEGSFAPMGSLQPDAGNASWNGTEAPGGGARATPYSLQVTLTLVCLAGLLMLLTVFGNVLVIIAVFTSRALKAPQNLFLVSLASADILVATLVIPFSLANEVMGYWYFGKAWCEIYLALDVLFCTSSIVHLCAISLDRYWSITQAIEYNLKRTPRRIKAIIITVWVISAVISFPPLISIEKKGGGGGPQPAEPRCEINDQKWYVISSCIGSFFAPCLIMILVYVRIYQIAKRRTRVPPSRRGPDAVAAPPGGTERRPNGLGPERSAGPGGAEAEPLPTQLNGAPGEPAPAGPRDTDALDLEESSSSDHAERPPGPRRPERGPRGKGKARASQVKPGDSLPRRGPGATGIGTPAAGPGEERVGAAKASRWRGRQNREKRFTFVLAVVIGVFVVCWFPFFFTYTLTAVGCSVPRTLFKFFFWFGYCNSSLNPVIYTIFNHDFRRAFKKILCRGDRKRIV

In test [6] the target is T2, Muscarinic acetylcholine receptor M2 (Homo sapiens, UniProt P08172).
T2 sequence (P08172 whole entry): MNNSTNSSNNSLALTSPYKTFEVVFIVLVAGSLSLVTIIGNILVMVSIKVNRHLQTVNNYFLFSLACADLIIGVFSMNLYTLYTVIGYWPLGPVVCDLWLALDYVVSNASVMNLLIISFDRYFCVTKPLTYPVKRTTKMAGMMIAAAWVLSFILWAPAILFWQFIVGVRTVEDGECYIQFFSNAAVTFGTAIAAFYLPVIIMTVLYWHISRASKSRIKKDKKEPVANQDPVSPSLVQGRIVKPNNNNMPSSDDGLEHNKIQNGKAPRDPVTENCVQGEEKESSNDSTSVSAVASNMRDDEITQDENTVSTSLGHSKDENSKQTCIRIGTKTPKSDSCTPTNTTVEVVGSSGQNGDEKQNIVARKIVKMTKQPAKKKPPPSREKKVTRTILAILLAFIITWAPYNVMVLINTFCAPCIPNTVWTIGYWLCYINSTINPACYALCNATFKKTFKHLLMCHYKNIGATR

Test [7] concerns the target Prothrombin (Homo sapiens, UniProt P00734). It is filed as functional.
Test [8] addresses Histamine H3 receptor (Homo sapiens, UniProt Q9Y5N1).
The target in test [9] is T3, 5-hydroxytryptamine receptor 1A (Homo sapiens, UniProt P08908).
T3 sequence (P08908 whole entry): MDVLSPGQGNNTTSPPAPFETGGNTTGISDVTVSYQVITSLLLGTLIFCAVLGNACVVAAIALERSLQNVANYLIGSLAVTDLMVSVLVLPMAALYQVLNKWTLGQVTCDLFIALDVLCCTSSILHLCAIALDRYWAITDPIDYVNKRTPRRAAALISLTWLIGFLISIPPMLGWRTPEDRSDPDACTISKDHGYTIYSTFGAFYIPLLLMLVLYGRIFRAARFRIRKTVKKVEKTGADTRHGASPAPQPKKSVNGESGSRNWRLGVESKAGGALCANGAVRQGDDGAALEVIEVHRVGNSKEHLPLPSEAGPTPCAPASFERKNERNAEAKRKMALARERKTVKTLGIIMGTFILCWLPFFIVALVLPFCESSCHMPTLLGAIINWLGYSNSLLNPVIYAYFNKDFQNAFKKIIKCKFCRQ

The target of test [10] is 5-hydroxytryptamine receptor 2B (Homo sapiens, UniProt P41595). Type of test: functional, cell-based.
Test [11] deals with T4, Amine oxidase [flavin-containing] A (Homo sapiens, UniProt P21397).
T4 sequence (P21397 whole entry): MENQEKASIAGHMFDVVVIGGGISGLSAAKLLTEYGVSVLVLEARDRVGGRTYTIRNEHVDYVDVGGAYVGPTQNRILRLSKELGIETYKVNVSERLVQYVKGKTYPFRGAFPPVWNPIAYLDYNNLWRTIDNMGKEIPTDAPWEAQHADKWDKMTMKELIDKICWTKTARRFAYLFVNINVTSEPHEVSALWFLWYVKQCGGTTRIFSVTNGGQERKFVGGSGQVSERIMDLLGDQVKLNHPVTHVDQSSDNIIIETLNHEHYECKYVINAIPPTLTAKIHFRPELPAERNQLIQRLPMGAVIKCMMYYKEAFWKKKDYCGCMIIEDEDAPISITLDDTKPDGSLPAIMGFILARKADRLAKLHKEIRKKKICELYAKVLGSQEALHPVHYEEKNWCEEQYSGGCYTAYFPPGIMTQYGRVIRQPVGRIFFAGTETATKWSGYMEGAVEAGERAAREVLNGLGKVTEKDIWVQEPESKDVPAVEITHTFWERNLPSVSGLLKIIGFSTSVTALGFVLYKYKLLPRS
Type of test: functional.

Test [12] deals with cGMP-inhibited 3',5'-cyclic phosphodiesterase 3A (Homo sapiens, UniProt Q14432). Type of test: functional.
For test [13], the target named is 3',5'-cyclic-AMP phosphodiesterase 4A (Homo sapiens, UniProt P27815). It is filed as functional.
Test [14] concerns the target Sodium-dependent dopamine transporter (Homo sapiens, UniProt Q01959).
For test [15], the target named is T5, Thromboxane A2 receptor (Homo sapiens, UniProt P21731).
T5 sequence (P21731 whole entry): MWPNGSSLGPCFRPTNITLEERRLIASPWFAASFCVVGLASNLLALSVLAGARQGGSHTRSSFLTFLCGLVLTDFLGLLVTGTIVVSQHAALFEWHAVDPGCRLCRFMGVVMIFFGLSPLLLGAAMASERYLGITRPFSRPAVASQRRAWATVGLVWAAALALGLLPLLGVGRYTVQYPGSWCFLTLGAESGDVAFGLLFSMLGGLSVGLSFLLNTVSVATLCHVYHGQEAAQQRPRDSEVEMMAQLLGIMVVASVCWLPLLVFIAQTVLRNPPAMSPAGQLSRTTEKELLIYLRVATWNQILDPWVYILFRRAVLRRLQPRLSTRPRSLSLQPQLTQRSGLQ
It is filed as functional, cell-based.

The target in test [16] is T5, Thromboxane A2 receptor. It is filed as functional, cell-based. The source holds these as a separate data set.

The source of these data is ChEMBL document CHEMBL5291721, “A preclinical secondary pharmacology resource illuminates target-adverse drug reaction associations of marketed drugs” (Nat Commun, 2023).

Structures are written as SMILES. Where only a bound is given, the exact number is not on record here.
Note: assay procedure not described here.

5-hydroxytryptamine receptor 2B, sequence (P41595 whole entry): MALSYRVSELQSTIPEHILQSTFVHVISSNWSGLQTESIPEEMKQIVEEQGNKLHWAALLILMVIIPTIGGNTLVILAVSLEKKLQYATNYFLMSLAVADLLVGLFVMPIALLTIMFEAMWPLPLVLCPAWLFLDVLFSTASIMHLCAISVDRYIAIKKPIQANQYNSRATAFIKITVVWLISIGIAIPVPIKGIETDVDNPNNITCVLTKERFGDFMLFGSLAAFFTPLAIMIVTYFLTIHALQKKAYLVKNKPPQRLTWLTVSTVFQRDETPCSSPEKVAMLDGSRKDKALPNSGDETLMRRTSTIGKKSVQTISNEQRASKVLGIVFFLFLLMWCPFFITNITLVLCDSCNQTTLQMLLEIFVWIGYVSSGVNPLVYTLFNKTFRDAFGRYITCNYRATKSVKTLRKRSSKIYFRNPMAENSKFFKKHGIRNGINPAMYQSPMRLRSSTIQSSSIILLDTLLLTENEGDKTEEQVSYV
Voltage-gated inwardly rectifying potassium channel KCNH2, sequence (Q12809 whole entry): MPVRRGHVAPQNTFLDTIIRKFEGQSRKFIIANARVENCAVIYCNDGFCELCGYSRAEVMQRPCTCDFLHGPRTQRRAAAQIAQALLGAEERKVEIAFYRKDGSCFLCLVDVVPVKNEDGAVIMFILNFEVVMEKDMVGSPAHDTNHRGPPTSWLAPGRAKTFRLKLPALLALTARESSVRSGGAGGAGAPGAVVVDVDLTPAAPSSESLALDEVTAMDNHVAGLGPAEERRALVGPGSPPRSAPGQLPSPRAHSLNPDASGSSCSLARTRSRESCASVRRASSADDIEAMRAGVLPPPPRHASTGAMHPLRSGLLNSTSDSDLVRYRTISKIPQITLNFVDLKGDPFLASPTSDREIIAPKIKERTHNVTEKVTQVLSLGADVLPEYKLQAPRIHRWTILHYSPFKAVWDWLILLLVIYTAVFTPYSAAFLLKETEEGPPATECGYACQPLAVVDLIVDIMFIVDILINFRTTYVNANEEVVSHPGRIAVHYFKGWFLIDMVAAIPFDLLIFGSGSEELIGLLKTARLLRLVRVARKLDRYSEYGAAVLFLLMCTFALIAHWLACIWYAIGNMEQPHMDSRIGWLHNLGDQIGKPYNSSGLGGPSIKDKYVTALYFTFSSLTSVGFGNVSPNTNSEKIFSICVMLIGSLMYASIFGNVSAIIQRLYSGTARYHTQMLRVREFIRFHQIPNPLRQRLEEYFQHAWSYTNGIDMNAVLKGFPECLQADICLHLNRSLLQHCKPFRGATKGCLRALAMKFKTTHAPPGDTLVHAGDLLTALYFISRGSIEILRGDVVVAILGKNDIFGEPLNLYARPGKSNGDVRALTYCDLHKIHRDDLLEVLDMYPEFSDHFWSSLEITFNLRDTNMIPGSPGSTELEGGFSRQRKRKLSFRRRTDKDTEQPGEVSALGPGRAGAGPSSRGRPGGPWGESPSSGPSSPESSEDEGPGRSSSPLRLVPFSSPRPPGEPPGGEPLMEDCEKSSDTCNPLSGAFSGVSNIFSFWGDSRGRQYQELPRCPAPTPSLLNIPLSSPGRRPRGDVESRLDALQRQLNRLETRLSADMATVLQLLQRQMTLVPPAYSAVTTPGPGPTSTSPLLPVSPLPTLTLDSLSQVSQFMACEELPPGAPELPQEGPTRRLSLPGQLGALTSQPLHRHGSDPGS
cGMP-inhibited 3',5'-cyclic phosphodiesterase 3A, sequence (Q14432 whole entry): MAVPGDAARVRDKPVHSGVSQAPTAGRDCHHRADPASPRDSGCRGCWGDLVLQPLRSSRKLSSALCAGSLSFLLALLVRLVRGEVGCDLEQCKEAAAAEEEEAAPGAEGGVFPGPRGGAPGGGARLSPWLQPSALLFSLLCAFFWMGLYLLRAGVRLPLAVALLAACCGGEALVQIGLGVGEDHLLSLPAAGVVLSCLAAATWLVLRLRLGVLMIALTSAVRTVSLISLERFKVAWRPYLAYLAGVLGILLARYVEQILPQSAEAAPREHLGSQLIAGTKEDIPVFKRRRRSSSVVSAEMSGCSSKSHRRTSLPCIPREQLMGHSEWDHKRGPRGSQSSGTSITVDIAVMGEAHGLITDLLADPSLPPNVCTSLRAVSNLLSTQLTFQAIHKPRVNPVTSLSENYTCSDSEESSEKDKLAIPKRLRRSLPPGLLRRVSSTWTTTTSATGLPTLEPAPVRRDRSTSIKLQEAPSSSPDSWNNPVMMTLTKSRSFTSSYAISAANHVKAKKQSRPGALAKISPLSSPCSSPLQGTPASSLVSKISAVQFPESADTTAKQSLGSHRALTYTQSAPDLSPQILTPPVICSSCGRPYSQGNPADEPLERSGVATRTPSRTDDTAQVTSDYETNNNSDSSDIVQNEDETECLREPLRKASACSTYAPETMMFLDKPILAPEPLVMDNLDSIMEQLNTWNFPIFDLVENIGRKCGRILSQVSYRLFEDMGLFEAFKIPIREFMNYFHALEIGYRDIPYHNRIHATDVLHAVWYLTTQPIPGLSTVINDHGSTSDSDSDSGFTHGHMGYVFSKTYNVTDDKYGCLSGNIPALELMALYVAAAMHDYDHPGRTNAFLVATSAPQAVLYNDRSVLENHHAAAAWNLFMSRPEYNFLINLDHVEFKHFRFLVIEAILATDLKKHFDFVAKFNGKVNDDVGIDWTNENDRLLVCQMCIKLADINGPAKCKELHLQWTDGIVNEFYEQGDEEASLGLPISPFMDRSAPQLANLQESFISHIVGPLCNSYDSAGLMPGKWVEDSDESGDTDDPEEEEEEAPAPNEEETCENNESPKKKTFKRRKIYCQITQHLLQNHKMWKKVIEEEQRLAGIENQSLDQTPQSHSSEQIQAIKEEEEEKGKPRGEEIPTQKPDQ
Mu-type opioid receptor, sequence (P35372 whole entry): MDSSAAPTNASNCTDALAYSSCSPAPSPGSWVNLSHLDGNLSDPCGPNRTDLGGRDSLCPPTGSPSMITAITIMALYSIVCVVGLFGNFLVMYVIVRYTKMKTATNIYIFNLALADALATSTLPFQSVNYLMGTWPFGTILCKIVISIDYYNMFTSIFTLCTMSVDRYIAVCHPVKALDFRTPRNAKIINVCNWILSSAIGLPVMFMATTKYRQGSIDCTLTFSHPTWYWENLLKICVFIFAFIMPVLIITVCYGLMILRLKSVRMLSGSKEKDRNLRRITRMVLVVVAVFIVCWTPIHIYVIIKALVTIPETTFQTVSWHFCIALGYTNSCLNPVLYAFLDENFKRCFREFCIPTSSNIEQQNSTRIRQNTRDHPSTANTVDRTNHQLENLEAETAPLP
3',5'-cyclic-AMP phosphodiesterase 4A, sequence (P27815 whole entry): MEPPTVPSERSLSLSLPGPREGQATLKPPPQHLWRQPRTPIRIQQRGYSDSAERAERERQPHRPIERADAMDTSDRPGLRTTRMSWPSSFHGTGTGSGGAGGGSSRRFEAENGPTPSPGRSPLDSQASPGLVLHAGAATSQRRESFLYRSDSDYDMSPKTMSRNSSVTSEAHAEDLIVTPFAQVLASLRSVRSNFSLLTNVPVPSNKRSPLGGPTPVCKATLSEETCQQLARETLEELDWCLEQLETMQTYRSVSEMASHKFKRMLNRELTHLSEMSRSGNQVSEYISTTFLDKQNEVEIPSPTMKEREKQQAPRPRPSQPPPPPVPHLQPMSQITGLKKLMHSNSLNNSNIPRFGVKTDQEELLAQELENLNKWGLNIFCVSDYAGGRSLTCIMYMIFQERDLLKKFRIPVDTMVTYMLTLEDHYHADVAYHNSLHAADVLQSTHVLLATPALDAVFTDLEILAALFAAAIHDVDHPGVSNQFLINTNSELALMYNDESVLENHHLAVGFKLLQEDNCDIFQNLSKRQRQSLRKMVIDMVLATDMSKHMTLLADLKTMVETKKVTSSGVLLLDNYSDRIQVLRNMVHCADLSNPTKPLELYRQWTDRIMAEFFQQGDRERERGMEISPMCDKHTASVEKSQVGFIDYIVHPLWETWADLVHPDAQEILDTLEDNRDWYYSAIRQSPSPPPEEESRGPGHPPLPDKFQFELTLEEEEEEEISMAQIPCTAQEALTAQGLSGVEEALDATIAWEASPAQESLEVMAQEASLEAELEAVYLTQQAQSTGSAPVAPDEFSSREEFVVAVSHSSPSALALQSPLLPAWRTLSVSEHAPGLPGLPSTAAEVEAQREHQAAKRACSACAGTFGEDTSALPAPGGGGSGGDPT
Adenosine receptor A2a, sequence (P29274 whole entry): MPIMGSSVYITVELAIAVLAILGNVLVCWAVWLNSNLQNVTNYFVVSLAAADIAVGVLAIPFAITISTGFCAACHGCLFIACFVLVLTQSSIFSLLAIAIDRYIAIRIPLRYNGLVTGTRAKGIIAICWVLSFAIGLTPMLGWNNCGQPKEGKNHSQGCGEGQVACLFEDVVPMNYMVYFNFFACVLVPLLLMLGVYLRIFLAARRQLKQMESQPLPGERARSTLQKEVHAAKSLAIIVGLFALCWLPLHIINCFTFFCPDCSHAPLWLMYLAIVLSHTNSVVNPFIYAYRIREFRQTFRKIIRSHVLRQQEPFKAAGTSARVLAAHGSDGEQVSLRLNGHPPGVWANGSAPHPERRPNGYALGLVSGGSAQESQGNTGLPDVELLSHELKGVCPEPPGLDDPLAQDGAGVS
Histamine H3 receptor, sequence (Q9Y5N1 whole entry): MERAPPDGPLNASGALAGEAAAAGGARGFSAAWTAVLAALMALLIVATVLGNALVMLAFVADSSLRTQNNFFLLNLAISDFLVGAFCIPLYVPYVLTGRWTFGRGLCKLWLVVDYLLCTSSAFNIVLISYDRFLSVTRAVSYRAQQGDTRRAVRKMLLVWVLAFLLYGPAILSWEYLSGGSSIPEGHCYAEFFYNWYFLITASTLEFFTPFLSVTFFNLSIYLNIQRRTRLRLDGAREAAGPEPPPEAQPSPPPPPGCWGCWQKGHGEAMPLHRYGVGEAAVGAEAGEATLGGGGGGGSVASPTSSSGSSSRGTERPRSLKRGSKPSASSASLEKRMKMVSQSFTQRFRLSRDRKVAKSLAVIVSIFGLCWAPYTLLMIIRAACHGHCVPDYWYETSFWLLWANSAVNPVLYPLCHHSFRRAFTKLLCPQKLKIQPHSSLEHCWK

For `C[N+]1(C)CCC(=C(c2ccccc2)c2ccccc2)CC1`, the figures for the AC50 in test [1], in test [2] and in [3] were greater than 30 µM, 0.187 µM and greater than 30 µM, respectively.
In the case of `CN(C)Cc1nnc2n1-c1ccc(Cl)cc1C(c1ccccc1)=NC2` [ADINAZOLAM], the AC50 (usually the midpoint of the concentration-response curve, whichever way the signal moves) in test [1] is greater than 10 µM; in test [2] it was greater than 30 µM; in test [3], greater than 30 µM.
`Cc1ccccc1-n1c(CF)nc2ccc(N)cc2c1=O` [AFLOQUALONE]: the AC50 in test [1], in test [2] and in test [3] was greater than 30 µM throughout.
For `CCC1(c2ccc(N)cc2)CCC(=O)NC1=O` (stereo not drawn) [AMINOGLUTETHIMIDE], the AC50 in test [1], in [2] and in test [3] was greater than 30 µM each time.
As to `CC(Cc1cccc(C(F)(F)F)c1)NCCOC(=O)c1ccccc1` (stereo not drawn) [BENFLUOREX], the AC50 in [1] is greater than 30 µM; in test [2] it was 5.6 µM; in test [3] it was 17 µM.
For `CCOC(=O)c1ccc(N)cc1` [BENZOCAINE], in that order: greater than 10 µM, greater than 30 µM and greater than 30 µM.
The like results for `CC(C)(Oc1ccc(CCNC(=O)c2ccc(Cl)cc2)cc1)C(=O)O` [BEZAFIBRATE] were, in that order, greater than 10 µM, greater than 30 µM and greater than 30 µM.
The like results for `C/C=C(/C(=C/C)c1ccc(O)cc1)c1ccc(O)cc1` [DIENESTROL] were, in that order, greater than 30 µM, greater than 30 µM and greater than 30 µM.
Consider `COc1ccc([C@@H]2CC(=O)c3c(O)cc(O)cc3O2)cc1O` [HESPERETIN], for which the AC50 in test [1] was greater than 10 µM; in test [2], greater than 30 µM; in test [3], greater than 30 µM.
`CN(C)CCCN1c2ccccc2CCc2ccccc21` [IMIPRAMINE]: the AC50 in test [1] is greater than 30 µM; in test [3], 8.1 µM.
In the case of `CCC[C@@H]1C[C@@H](C(=O)N[C@@H]([C@H]2O[C@H](SC)[C@H](O)[C@@H](O)[C@H]2O)[C@@H](C)O)N(C)C1` [LINCOMYCIN], the AC50 in test [1] was greater than 10 µM; in test [2], greater than 30 µM; in [3], greater than 30 µM.
Turning to `C=C1c2cccc(O)c2C(=O)C2=C(O)[C@]3(O)C(=O)C(C(N)=O)=C(O)[C@@H](N(C)C)[C@@H]3[C@@H](O)[C@H]12` [METHACYCLINE], the AC50 in [1], in [2] and in [3] was greater than 30 µM each time.
For the compound `CN(Cc1cnc2nc(N)nc(N)c2n1)c1ccc(C(=O)N[C@@H](CCC(=O)O)C(=O)O)cc1` [METHOTREXATE], the AC50 in test [1], in test [2] and in test [3] was greater than 30 µM each time.
With `Cc1ccccc1N1C(=O)c2cc(S(N)(=O)=O)c(Cl)cc2NC1C` (stereo not drawn) [METOLAZONE], the AC50 in test [1] is greater than 10 µM; in test [2], greater than 30 µM; in [3] it was greater than 30 µM.
As for `O=C(O)c1cccnc1Nc1cccc(C(F)(F)F)c1` [NIFLUMIC ACID], the results for the AC50 in test [1], in [2] and in test [3] were greater than 10 µM, greater than 30 µM and greater than 30 µM, respectively.
For `O=C1c2ccccc2C(=O)C1c1ccccc1` [PHENINDIONE], the figures for the concentration at half-maximal activity (AC50) in test [1], in test [2] and in [3] were greater than 10 µM, greater than 30 µM and greater than 30 µM, respectively.
For the compound `CC(C)c1cccc(C(C)C)c1O` [PROPOFOL], the AC50 in test [1] and in test [3] was greater than 30 µM each time.
For `CN[C@@H](C)[C@@H](O)c1ccccc1` [PSEUDOEPHEDRINE], the AC50 in test [1], in test [2] and in test [3] was greater than 30 µM throughout.
As for `O=S1(=O)CCN(CN2CCS(=O)(=O)NC2)CN1` [TAUROLIDINE], the AC50 in test [4], in test [1], in [5], in test [6], in test [7] and in test [8] was greater than 30 µM in each case. Further, the AC50 in test [9], in test [10], in [2], in [11], in [12] and in test [13] was greater than 30 µM each time. For the same compound, the AC50 in [14], in test [15] and in test [16] was greater than 30 µM throughout.
Turning to `C[C@]12C=CC(=O)C=C1CC[C@@H]1[C@@H]2CC[C@]2(C)OC(=O)CC[C@@H]12` [TESTOLACTONE], the half-maximal activity concentration (AC50) was greater than 10 µM in test [1], greater than 30 µM in [2] and greater than 30 µM in test [3].
On to `c1ccc2c(SC3=NCCN3)c[nH]c2c1` [TINAZOLINE], for which the AC50 in test [4] is greater than 30 µM; in test [5], 0.0098 µM; in test [6], greater than 30 µM; in test [7], greater than 30 µM; in test [8], greater than 30 µM; in test [9], 0.19 µM. Moreover, the AC50 in [10] was greater than 30 µM; in [2] it was greater than 30 µM; in test [11], 15.9 µM; in test [12] it was greater than 30 µM; in test [13] it was greater than 30 µM; in test [14], greater than 30 µM. The concentration at half-maximal activity (AC50) in test [15] and in test [16] was greater than 30 µM in each case.
For the compound `Cc1ccc(C(=O)C(C)CN2CCCCC2)cc1` (stereo not drawn) [TOLPERISONE], the AC50 in test [4] is greater than 30 µM; in test [5], greater than 30 µM; in test [6], 3.7 µM; in [7], greater than 30 µM; in test [8] it was 4.74 µM; in test [9], greater than 30 µM. Moreover, the AC50 in test [10], in test [2], in test [11], in test [12], in test [13] and in test [14] was greater than 30 µM in each case. The AC50 in [15] and in test [16] was greater than 30 µM throughout.
